Earlier results in US8871800B2, “Statin and omega-3 fatty acids for reduction of Apo-B levels” (GlaxoSmithKline, LLC, priority 2006, dated 2014).

What was measured:
[1] = system: obese, insulin-resistant men with dyslipidemia; settings: atorvastatin monotherapy 40 mg/day, 6 weeks
[2] = system: patients with hyperlipemia; settings: atorvastatin monotherapy 10 mg/day, 5 weeks; compared to baseline
[3] = system: patients with familial hypercholesterolemia; settings: monotherapy (6 g/day Omacor or 40 mg/day lovastatin), 6 weeks
[4] = system: patients with hypercholesterolemia; settings: lovastatin monotherapy 40 mg/day, 6 weeks

CC(C)c1c(C(=O)Nc2ccccc2)c(-c2ccccc2)c(-c2ccc(F)cc2)n1CC[C@@H](O)C[C@@H](O)CC(=O)O [atorvastatin]
Apo-B levels [1]: significantly decreased | Apo-B levels [2]: significantly decreased | HDL-C levels [2]: significantly increased | LDL-C levels [2]: significantly decreased | triglyceride levels [2]: significantly decreased

CC[C@H](C)C(=O)O[C@H]1C[C@@H](C)C=C2C=C[C@H](C)[C@H](CC[C@@H]3C[C@@H](O)CC(=O)O3)[C@H]21 [lovastatin]
Apo-B levels [3]: significantly reduced | Apo-B levels [4]: significantly reduced | HDL-C levels [4]: significant increases | LDL-C levels [4]: significant decreases | triglyceride levels [4]: significant decreases
